Experimental data as given in patent US20240398824A1, “Inhibition Of Rip Kinases For Treating Neurodegenerative Disorders” (The Johns Hopkins University, priority 2018, published 2024).

What was measured:
[1] = system: primary microglia activated with α-synuclein PFFs; test: qPCR of A1 astrocyte inducers (TNFα, IL-1α, C1q) in primary microglia activated with α-synuclein PFFs; assay type: cell-based, mouse; details: inhibitor 10 μM 30 min, then α-synuclein PFFs 1 μg/mL 4 h; in words
Experimental: α-synuclein purification and α-synuclein PFFs preparation: Recombinant mouse α-synuclein proteins were purified as previously described with an IPTG-independent inducible pRK172 vector system (Nat Protoc. 9(9): 2135-46 (2014)). Endotoxin was depleted by ToxinEraser endotoxin removal kit (Genscript, NJ, USA). α-synuclein PFFs (5 mg ml^−1) was prepared in PBS while stirring with a magnetic stirrer (1,000 rpm at 37° C.). After a week of incubation of the α-synuclein protein, aggregates were diluted to 0.1 mg ml^−1 with PBS and sonicated for 30 s (0.5 s pulse on/off) at 10% amplitude (Branson Digital sonifier, Danbury, CT, USA). α-synuclein PFFs was validated using atomic force microscopy and transmission electron microscopy, and the ability to induce phospho-serine 129 α-synuclein (p-α-synSer129) was confirmed using immunostaining. α-synuclein PFFs was stored at −80° C. until use. […]
Comparative qPCR: The total RNA from cultured cells was extracted with RNA isolation kit (Qiagen, CA) following the instruction provided by the company. RNA concentration was measured spectrophotometrically using NanoDrop 2000 ([…]). […] The expression levels of targeted genes were normalized to the expression of β-actin and calculated based on the comparative cycle threshold Ct method (2-ΔΔCt).

[2] = system: BV-2 microglia; test: Real-time PCR of C1q, IL-6 and TNFα in AβO-activated BV-2 microglia; assay type: cell-based; design: key to mRNA levels of C1q / mRNA levels of IL-6 / mRNA levels of TNFα: relative expression normalized to GAPDH by 2^-ΔΔCt; PBS = 1
Experimental: Synthetic Abeta1-42 oligomers were generated as previously described (PMID: 27834631). Hydroxyfluroisopropanol (HFIP)-treated synthethic Abeta1-42 peptides (rPeptide, Bogart, GA, USA) were dissolved in dimethylsulfoxide (DMSO) and further diluted in phosphate-buffered saline (PBS) to obtain a 250 μM stock solution. The stock solution was incubated at 4° C. for at least 24 hours and stored at −80° C. until use. Before use, the solution was centrifuged at 12,000 g for 10 minutes and the supernatant was used as an oligomeric Aβ.
BV-2 microglial cells were cultured in DMEM media. 10^6 of BV-2 microglia in 6 well plate were treated with 2.5 μM of Abeta for 4 hrs. Total RNA from cultured cells was extracted with a RNA isolation kit (Qiagen, Valencia, CA, USA) following manufacturer's instructions. RNA concentration was measured spectrophotometrically using a NanoDrop 2000 (Thermo scientific). Subsequently, 2 μg of total RNA was reverse transcribed to cDNA using the High-Capacity cDNA Reverse Transcription System (Life Technologies, Grand Island, NY, USA). Comparative qPCR was performed using fast SYBR Green Master Mix (Life Technologies) and steponeplus real-time pcr system (Applied Biosystems, Foster City, CA, USA). The expression levels of target genes were normalized to the expression of GAPDH and calculated based on the comparative cycle threshold Ct method^−ΔΔ(2) Ct. (n=3)
To examine the effect of RIPK2 inhibition, 10^6 of BV-2 microglia in 6 well plate were preincubated with DMSO, GSK583 (1 μM, Medchemexpress), OD361 (1 μM, Calbiochem), or Sorafenib (1 μM) for one hour. For mRNA analysis, 5 μM of AβO was treated additional for 4 hours.

[3] = inhibitor 1 μM pretreatment, AβO 5 μM, in words

| Structure (SMILES) | release of A1 astrocyte inducer (TNFα, IL-1α, C1q) from microglia [1] | mRNA levels of IL-6 ([2]; BV-2 microglia preincubated 1 h with inhibitor 1 μM, then AβO 5 μM 4 h, PBS = 1 ± 0.08, Abeta alone 12.53 ± 0.59, ±SD) | mRNA levels of C1q ([2]; BV-2 microglia preincubated 1 h with inhibitor 1 μM, then AβO 5 μM 4 h, PBS = 1 ± 0.13, Abeta alone 3.7 ± 0.06, ±SD) | mRNA levels of TNFα ([2]; BV-2 microglia preincubated 1 h with inhibitor 1 μM, then AβO 5 μM 4 h, PBS = 1 ± 0.16, Abeta alone 16.19 ± 3.21, ±SD) | microglial activation [2, 3] | release of multiple inflammatory mediators including C1q, IL-6 and TNFα [2, 3] |
| --- | --- | --- | --- | --- | --- | --- |
| CC(C)(C)S(=O)(=O)c1ccc2nccc(Nc3n[nH]c4ccc(F)cc34)c2c1 [GSK583, 6-(tert-butylsulfonyl)-N-(5-fluoro-1H-indazol-3-yl) quinolin-4-amine] | significantly suppress | 4.89 ± 0.23 | 0.87 ± 0.14 | 3.23 ± 0.27 | blocked microglial activation | significantly reduced |
| COc1cc2ncnc(Nc3ccc(F)c(Cl)c3)c2cc1OCCCN1CCOCC1 [Gefitinib] | significantly suppress |  |  |  |  |  |
